From patent US9204653B2, “5-fluoro pyrimidine derivatives” (DOW AGROSCIENCES LLC, priority 2008, dated 2015)
Where two headings read alike, the source gives them in different places.

Experiments:
[1] = test system: Mycosphaerella graminicola; Anamorph: Septoria tritici; Bayer Code SEPTTR; assay: Leaf blotch of wheat, foliar fungicide treatment, one day protectant (1DP) or three day curative (3DC); type: in vivo, Septoria tritici on wheat plants (variety Yuma); conditions: Zymoseptoria tritici
[2] = test system: Cercospora beticola; Bayer Code CERCBE; assay: Leaf spot of sugar beets; type: in vivo, Cercospora beticola on sugar beets (variety HH-88); conditions: 24 h, % disease control rating, one day protectant; for pest or weed control at 25 ppm: read-out: CERCBE 1 DP 25 ppm; for pest or weed control at 75 ppm: read-out: CERCBE 1 DP 75 ppm
[3] = test system: Venturia inaequalis; Bayer Code VENTIN; assay: Apple scab; type: in vivo; conditions: 24 h, % disease control rating, one day protectant; for pest or weed control at 25 ppm: read-out: VENTIN 1 DP 25 ppm; for pest or weed control at 75 ppm: read-out: VENTIN 1 DP 75 ppm
[4] = 24 h, one day protectant (1DP), percent disease control rating, read-out: SETTTR 1DP 25 ppm
[5] = 24 h, one day protectant (1DP), percent disease control rating, read-out: SEPTTR 1DP 100 ppm
[6] = 72 h, three day curative (3DC), percent disease control rating, read-out: SEPTTR 3DC 25 ppm
[7] = 72 h, three day curative (3DC), percent disease control rating, read-out: SEPTTR 3DC 100 ppm
[8] = 24 h, one day protectant (1DP), rating of percent disease control, read-out: SETTTR 1DP 25 ppm
[9] = 24 h, one day protectant (1DP), rating of percent disease control, read-out: SEPTTR 1DP 100 ppm
[10] = 72 h, three day curative (3DC), rating of percent disease control, read-out: SEPTTR 3DC 25 ppm
[11] = 72 h, three day curative (3DC), rating of percent disease control, read-out: SEPTTR 3DC 100 ppm

| Structure (SMILES) | pest or weed control at 25 ppm [1, 4] | pest or weed control at 100 ppm [1, 5] | pest or weed control at 25 ppm [1, 6] | pest or weed control at 100 ppm [1, 7] | pest or weed control at 25 ppm [2] | pest or weed control at 75 ppm [2] | pest or weed control at 25 ppm [3] | pest or weed control at 75 ppm [3] | pest or weed control at 25 ppm [1, 8] | pest or weed control at 100 ppm [1, 9] | pest or weed control at 25 ppm [1, 10] | pest or weed control at 100 ppm [1, 11] |
| --- | --- | --- | --- | --- | --- | --- | --- | --- | --- | --- | --- | --- |
| C/C(=N\Oc1ncc(F)c(N)n1)c1ccccc1 [Compound 4, 1-Phenyl-ethanone-O-(4-amino-5-fluoropyrimidin-2-yl)oxime] | 76 to 100% | 76 to 100% | 76 to 100% | 76 to 100% | 76 to 100% | 76 to 100% | 76 to 100% | 76 to 100% | – | – | – | – |
| CN1CCN(CNc2nc(OCc3ccc(F)cc3)ncc2F)CC1 [Compound 7, [5-Fluoro-2-(4-fluorobenzyloxy)pyrimidin-4-yl]-(4-methylpiperazin-1-ylmethyl)amine] | 76 to 100% | 76 to 100% | 76 to 100% | 76 to 100% | 51 to 75% | 51 to 75% | 76 to 100% | 76 to 100% | – | – | – | – |
| CCOC(=O)C(=O)Nc1nc(OCc2ccc(F)cc2)ncc1F [Compound 11, N-[5-Fluoro-2-(4-fluorobenzyloxy)pyrimidin-4-yl]oxalamic acid ethyl ester] | 76 to 100% | 76 to 100% | 76 to 100% | 76 to 100% | 0 to 25% | 0 to 25% | 76 to 100% | 76 to 100% | – | – | – | – |
| CCC(Nc1nc(OCc2ccc(F)cc2)ncc1F)OC (centres unmarked) [Compound 14, [5-Fluoro-2-(4-fluorobenzyloxy)pyrimidin-4-yl](1-methoxypropyl)amine] | 76 to 100% | 76 to 100% | 76 to 100% | 76 to 100% | 0 to 25% | 0 to 25% | 76 to 100% | 76 to 100% | – | – | – | – |
| N#CN/C=N/c1nc(OCc2ccc(F)cc2)ncc1F [Compound 23, N-[5-Fluoro-2-(4-fluorobenzyloxy)pyrimidin-4-yl]-N′-cyanoformamidine] | 76 to 100% | 76 to 100% | 76 to 100% | 76 to 100% | 0 to 25% | 51 to 75% | 51 to 75% | 76 to 100% | – | – | – | – |
| CC/C(=N\c1nc(OCc2ccc(F)cc2)ncc1F)N(C)C [Compound 24, N′-[5-Fluoro-2-(4-fluorobenzyloxy)pyrimidin-4-yl]-N,N-dimethyl-propionamidine] | 76 to 100% | 76 to 100% | 76 to 100% | 76 to 100% | 0 to 25% | 0 to 25% | 26 to 50% | 76 to 100% | – | – | – | – |
| CCCNC(=O)N(C(=O)NCCC)c1nc(OCc2cccc(OC)c2)ncc1F [Compound 36, 1-[5-Fluoro-2-(3-methoxybenzyloxy)pyrimidin-4-yl](3′-propylcarbamoyl)-3-propyl-urea] | 26 to 50% | 76 to 100% | 51 to 75% | 76 to 100% | 51 to 75% | 51 to 75% | 51 to 75% | 76 to 100% | – | – | – | – |
| Nc1nc(OC(Cc2ccccc2)c2ccc(F)cc2)ncc1F (centres unmarked) [Compound 61] | 76 to 100% | 76 to 100% | 0 to 25% | 0 to 25% | 0 to 25% | 0 to 25% | 76 to 100% | 51 to 75% | – | – | – | – |
| CCCCCCOc1ncc(F)c(/N=C/N(C)C)n1 [Compound 68] | 0 to 25% | 51 to 75% | 0 to 25% | 51 to 75% | 51 to 75% | 51 to 75% | 51 to 75% | 76 to 100% | – | – | – | – |
| Nc1nc(OCc2coc(Cc3ccccc3)c2)ncc1F [Compound 69] | 76 to 100% | 76 to 100% | 51 to 75% | 76 to 100% | 0 to 25% | 26 to 50% | 51 to 75% | 76 to 100% | – | – | – | – |
| Nc1nc(OCc2ccc(OCC(F)(F)F)nc2)ncc1F [Compound 79] | 76 to 100% | 76 to 100% | 76 to 100% | 76 to 100% | 0 to 25% | 26 to 50% | 26 to 50% | 26 to 50% | – | – | – | – |
| CN(C)/C=N/c1nc(OCc2ccccc2)ncc1F [Compound 209] | – | – | – | – | – | – | 51 to 75% | 76 to 100% | 76 to 100% | 76 to 100% | 76 to 100% | 76 to 100% |
| CCOC(=O)COc1ncc(F)c(N)n1 [Compound 221] | – | – | – | – | 26 to 50% | 51 to 75% | 0 to 25% | 26 to 50% | – | – | – | – |
| Nc1nc(OCc2cccc(F)c2)ncc1F [Compound 236] | – | – | – | – | – | – | 76 to 100% | 76 to 100% | 76 to 100% | 76 to 100% | 76 to 100% | 76 to 100% |
| Cc1ccccc1C(C)Oc1ncc(F)c(N)n1 (centres unmarked) [Compound 313] | – | – | – | – | – | – | 26 to 50% | 51 to 75% | 76 to 100% | 76 to 100% | 76 to 100% | 76 to 100% |
| Nc1nc(OCc2cc3ccccc3s2)ncc1F [Compound 345] | – | – | – | – | – | – | 51 to 75% | 76 to 100% | 76 to 100% | 76 to 100% | 76 to 100% | 76 to 100% |
| Cc1cc(C)c(COc2ncc(F)c(/N=C/N(C)C)n2)c(C)c1 [Compound 347] | – | – | – | – | – | – | 76 to 100% | 26 to 50% | 76 to 100% | 76 to 100% | 76 to 100% | 76 to 100% |
| Cc1ccc(COc2ncc(F)c(/N=C/N(C)C)n2)cc1 [Compound 469] | – | – | – | – | – | – | 51 to 75% | 76 to 100% | 76 to 100% | 76 to 100% | 76 to 100% | 76 to 100% |
| Cc1cc(C)c(COc2ncc(F)c(N)n2)c(C)c1 [Compound 510] | – | – | – | – | – | – | 76 to 100% | 76 to 100% | 51 to 75% | 76 to 100% | 51 to 75% | 76 to 100% |
| COc1ccc(COc2ncc(F)c(N)n2)cc1 [Compound 734] | – | – | – | – | – | – | 76 to 100% | 76 to 100% | 76 to 100% | 76 to 100% | 76 to 100% | 76 to 100% |
